Values joined by “and” are separate entries in the source; they are usually repeats but may differ in a detail not shown here. Equal values may be shown once.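 A five-concentration, 48-hour dose response in 96-well plates underlies each endpoint, interpolated linearly between surrounding concentrations. TGI marks complete inhibition of growth.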
Tests used:
Assay in all cases: NCI tumour cell line growth inhibition, 48 h
HL-60(TB) leukemia = test system: HL-60(TB) leukemia
786-0 renal = test system: 786-0 renal
NCI-H460 lung = test system: NCI-H460 lung
HCT-116 colon = test system: HCT-116 colon
COLO 205 colon = test system: COLO 205 colon
OVCAR-4 ovarian = test system: OVCAR-4 ovarian
UACC-62 melanoma = test system: UACC-62 melanoma
SK-MEL-28 melanoma = test system: SK-MEL-28 melanoma
HOP-62 NSCLC = test system: HOP-62 NSCLC
HCT-15 colon = test system: HCT-15 colon
MDA-MB-231 breast = test system: MDA-MB-231 breast
K-562 leukemia = test system: K-562 leukemia
SR leukemia = test system: SR leukemia
LXFL 529 NSCLC = test system: LXFL 529 NSCLC
DMS 114 small cell lung = test system: DMS 114 small cell lung
M19-MEL melanoma = test system: M19-MEL melanoma
DMS 273 small cell lung = test system: DMS 273 small cell lung

Row | Compound | TGI (HL-60(TB) leukemia) | TGI (786-0 renal) [µM] | TGI (NCI-H460 lung) [µM] | TGI (HCT-116 colon) | TGI (COLO 205 colon) [µM] | TGI (OVCAR-4 ovarian) [µM] | TGI (UACC-62 melanoma) [µM] | TGI (SK-MEL-28 melanoma) | TGI (HOP-62 NSCLC) [µM] | TGI (HCT-15 colon) | TGI (MDA-MB-231 breast) [µM] | TGI (K-562 leukemia) | TGI (SR leukemia) | TGI (LXFL 529 NSCLC) [µM] | TGI (DMS 114 small cell lung) [µM] | TGI (M19-MEL melanoma) [µM] | TGI (DMS 273 small cell lung) [µM]
1 | Cc1cc2c(cc1C)[n+](=O)c(C(=O)N1CCN(c3ccc([N+](=O)[O-])cc3)CC1)c(C)n2[O-] | > 100 µM | 34.8 | > 100 | > 100 µM | > 100 | > 100 | > 100 | > 100 µM | 29.4 | > 100 µM | 55.5 | > 100 µM | > 100 µM | – | – | – | –
2 | COc1ccc(-n2c(C)nc3ccc(NC4OCC(O)C(O)C4O)cc3c2=O)cc1 (configuration not stated) | 62.4 µM and 68.2 µM | > 100 | > 100 | 40.4 µM and 39.3 µM | > 100 | > 100 | > 100 | > 100 µM and 57 µM | > 100 | 65.8 µM and 80.8 µM | > 100 | 87.2 µM and 95.1 µM | 68.4 µM and 60.4 µM | – | – | – | –
3 | O=c1cc(CC(O)(C(F)(F)Cl)C(F)(F)Cl)[nH]n1-c1ccccc1 | > 100 µM | > 100 | > 100 | > 100 µM | > 100 | > 100 | > 100 | > 100 µM | > 100 | > 100 µM | > 100 | > 100 µM | > 100 µM | – | – | – | –
4 | CC1OC(OC2C(O)COC(OC3C(C)OC(OC4C(OC(=O)[C@]56CCC(C)(C)C[C@@H]5C5=CCC7[C@@]8(C)C[C@H](O)[C@H](OC9OC(CO)C(O)C(OC%10OC(CO)C(O)C(O)C%10O)C9O)[C@@](C)(CO)[C@@H]8CC[C@@]7(C)[C@]5(C)CC6)OCC(O)C4O)C(O)C3OC3OCC(O)C(O)C3O)C2O)C(O)C(O)C1O (some centres not stated) | 15 µM | 17.7 | 34.8 | 23.7 µM | 3.82 | 29.8 | 12.6 | 5.17 µM | 20.3 | 28.2 µM | 8.87 | > 52.3 µM | 27 µM | – | – | – | –
5 | COc1cc(C(C)c2cc3c(cc2OCCCCOc2cc4c(cc2C(C)c2cc(OC)c(OC)c(OC)c2)OCO4)OCO3)cc(OC)c1OC (configuration not stated) | > 100 µM | > 100 | > 100 | > 100 µM | > 100 | > 100 | > 100 | > 100 µM | > 100 | > 100 µM | – | > 100 µM | > 100 µM | > 100 | 45.1 | > 100 | –
6 | COC(=O)/C=C1/N=C(N(C)/N=C/c2ccccc2)NC1=O | > 100 µM | > 100 | > 100 | > 100 µM | > 100 | > 100 | > 100 | > 100 µM | > 100 | > 100 µM | > 100 | > 100 µM | > 100 µM | – | – | – | –
7 | Oc1c(-c2ccccc2)sc2ccccc12 | 45.4 µM | 59 | 51.2 | 71 µM | 28.2 | > 100 | > 100 | > 100 µM | 45.8 | > 100 µM | 29.1 | 67.5 µM | 34.9 µM | – | – | – | –
8 | COc1cc(C(N)=O)cc(NC(=O)/C=C/c2ccccc2)c1OC | > 100 µM | > 100 | > 100 | > 100 µM | > 100 | > 100 | > 100 | > 100 µM | > 100 | > 100 µM | > 100 | > 100 µM | > 100 µM | – | – | – | –
9 | c1ccc2sc(C3(N4CCCCC4)CCCCCC3)cc2c1 | 11.4 µM | 47.4 | 38.6 | 32.8 µM | 31.8 | 76 | 80.4 | 21.6 µM | 60.9 | 34.8 µM | 42.1 | 31 µM | 36.7 µM | – | – | – | –
10 | CC(C)CC(=O)NC(NC(C)C)(C(F)(F)F)C(F)(F)F | > 100 µM | > 100 | > 100 | > 100 µM | > 100 | > 100 | > 100 | > 100 µM | > 100 | > 100 µM | > 100 | > 100 µM | > 100 µM | – | – | – | –
11 | CC1(C)CN=C(Nc2ccc(Cl)cc2)S1 | > 100 µM | > 100 | – | > 100 µM | > 100 | > 100 | > 100 | > 100 µM | > 100 | > 100 µM | > 100 | > 100 µM | > 100 µM | – | – | – | –
12 | CCN(CC)Cc1nc(C2CCC([N+](=O)[O-])O2)no1 (configuration not stated) | 40.5 µM | > 100 | 44.5 | 60.4 µM | 30.3 | > 100 | 30.7 | 53.8 µM | 82.7 | 38.1 µM | > 100 | > 100 µM | > 100 µM | – | – | – | –
13 | O=c1c2cc(Br)cc(Br)c2[nH]c(=S)n1-c1ccccc1 | – | > 100 | > 100 | > 100 µM | > 100 | > 100 | > 100 | > 100 µM | > 100 | > 100 µM | – | > 100 µM | – | – | > 100 | > 100 | > 100
14 | C[C@@H](NC(=O)OC1C=CC2(CC1)C(=O)N(C)c1ccccc12)c1cccc2ccccc12 (some centres not stated) | 14.7 µM | > 25 | > 25 | > 25 µM | > 25 | > 25 | > 25 | > 25 µM | > 25 | > 25 µM | > 25 | > 25 µM | > 25 µM | – | – | – | –
15 | COc1ccccc1S(=O)Nc1ccccc1 (configuration not stated) | > 100 µM | > 100 | > 100 | > 100 µM | > 100 | > 100 | > 100 | > 100 µM | > 100 | > 100 µM | > 100 | > 100 µM | > 100 µM | – | – | – | –
16 | CCOC(=O)c1cc(C2CCN(Cc3ccccc3)C2=O)c(C(=O)C(=[N+]=[N-])C(C)=O)[nH]1 (configuration not stated) | > 100 µM | > 100 | > 100 | > 100 µM | > 100 | > 100 | > 100 | > 100 µM | > 100 | > 100 µM | > 100 | > 100 µM | > 100 µM | – | – | – | –
17 | CCOC(=O)c1cccc([N+](=O)[O-])c1N | > 100 µM | > 100 | > 100 | > 100 µM | > 100 | > 100 | > 100 | > 100 µM | > 100 | > 100 µM | > 100 | > 100 µM | > 100 µM | – | – | – | –

From PubChem BioAssay (NCI)
